Measured values: US20120214760A1, “TREATMENT OF URINARY TRACT INFECTIONS WITH ANTIBACTERIAL AMINOGLYCOSIDE COMPOUNDS” (Achaogen, Inc., priority 2009, published 2012)
Values after ≈ are worked out from the molar mass of the structure shown. Read-outs that look alike come from different tables or passages of the source.

Key:
[1] = test system: P. aeruginosa ATCC 27853 (APAE001); experiment: MIC, CLSI broth microdilution; type: cell-based; details: Pseudomonas aeruginosa
Protocol: (§1) Minimum inhibitory concentrations (MIC) were determined by reference Clinical and Laboratory Standards Institute (CLSI) broth microdilution methods per M7-A7 [2006]. Quality control ranges utilizing E. coli ATCC 25922, P. aeruginosa ATCC 27853 and S. aureus ATCC 29213, and interpretive criteria for comparator agents were as published in CLSI M100-S17 [2007]. Briefly, serial two-fold dilutions of the test compounds were prepared at 2× concentration in Mueller Hinton Broth. The compound dilutions were mixed in 96-well assay plates in a 1:1 ratio with bacterial inoculum. The inoculum was prepared by suspension of a colony from an agar plate that was prepared the previous day. Bacteria were suspended in sterile saline and added to each assay plate to obtain a final concentration of 5×10^5 CFU/mL. The plates were incubated at 35° C. for 20 hours in ambient air.

[2] = test system: E. coli ATCC 25922 (AECO001); experiment: MIC, CLSI broth microdilution; type: cell-based; details: Escherichia coli
Protocol: as §1

[3] = ATCC27853, read-out: MIC APAE001, Table 1, APAE001 is ATCC27853
[4] = ATCC25922, read-out: MIC AECO001, Table 1, AECO001 is ATCC25922
[5] = ATCC27853, Table 2, read-out: MIC P. aeruginosa
[6] = ATCC25922, Table 2, read-out: MIC E. coli
[7] = Table 1, AECO001 is ATCC25922, read-out: MIC AECO001

Structure (SMILES)	MIC [1, 3] [mg/L]	MIC [2, 4] [mg/L]	MIC [1, 5] [mg/L]	MIC [2, 6] [mg/L]	MIC [2, 7] [mg/L]
CN[C@@H]1[C@@H](O)[C@@H](O[C@@H]2[C@@H](O)[C@H](O[C@H]3OC(CNCCO)=CC[C@H]3N)[C@@H](N)C[C@H]2NC(=O)[C@H](O)CCN)OC[C@]1(C)O [Example 2, 6′-(2-Hydroxy-ethyl)-1-(4-amino-2(R)-hydroxy-butyryl)-sisomicin]	1 to 16 (≈ 1.69 to 27 µM)	1 to 16 (≈ 1.69 to 27 µM)			
CN[C@@H]1[C@@H](O)[C@@H](O[C@@H]2[C@@H](O)[C@H](O[C@H]3OC(CNCC(O)CO)=CC[C@H]3N)[C@@H](N)C[C@H]2NC(=O)[C@H](O)CCN)OC[C@]1(C)O (stereo partly drawn) [Example 3, 6′-(2-Hydroxy-propanol)-1-(4-amino-2(R)-hydroxy-butyryl)-sisomicin]	> 16	1 to 16 (≈ 1.61 to 25.7 µM)			
CN[C@@H]1[C@@H](O)[C@@H](O[C@@H]2[C@@H](O)[C@H](O[C@H]3OC(CNCC4CCNCC4)=CC[C@H]3N)[C@@H](N)C[C@H]2NC(=O)[C@H](O)CCN)OC[C@]1(C)O [Example 4, 6′-(Methyl-piperidin-4-yl)-1-(4-amino-2(R)-hydroxy-butyryl)-sisomicin]	1 to 16 (≈ 1.55 to 24.8 µM)	1 to 16 (≈ 1.55 to 24.8 µM)			
CN[C@@H]1[C@@H](O)[C@@H](O[C@@H]2[C@@H](O)[C@H](O[C@H]3OC(CNCC4CC4)=CC[C@H]3N)[C@@H](N)C[C@H]2NC(=O)[C@H](O)CCN)OC[C@]1(C)O [Example 5, 6′-(Methyl-cyclopropyl)-1-(4-amino-2(R)-hydroxy-butyryl)-sisomicin]	1 to 16 (≈ 1.66 to 26.5 µM)	< 1			
CN[C@@H]1[C@@H](O)[C@@H](O[C@@H]2[C@@H](O)[C@H](O[C@H]3OC(CNCCCN)=CC[C@H]3N)[C@@H](N)C[C@H]2NC(=O)[C@H](O)CCN)OC[C@]1(C)O [Example 6, 6′-(3-Amino-propyl)-1-(4-amino-2(R)-hydroxy-butyryl)-sisomicin]	1 to 16 (≈ 1.65 to 26.4 µM)	1 to 16 (≈ 1.65 to 26.4 µM)			
CN[C@@H]1[C@@H](O)[C@@H](O[C@@H]2[C@@H](O)[C@H](O[C@H]3OC(CNCC4CC4)=CC[C@H]3N)[C@@H](N)C[C@H]2NC(=O)[C@H](O)CN)OC[C@]1(C)O [Example 7, 6′-Methyl-cyclopropyl-1-(3-amino-2(R)-hydroxy-propionyl)-sisomicin]	1 to 16 (≈ 1.7 to 27.2 µM)	< 1			
CN[C@@H]1[C@@H](O)[C@@H](O[C@@H]2[C@@H](O)[C@H](O[C@H]3OC(CNCC4CCNCC4)=CC[C@H]3N)[C@@H](N)C[C@H]2NC(=O)[C@H](O)CN)OC[C@]1(C)O [Example 8, 6′-Methyl-piperidinyl-1-(3-amino-2(R)-hydroxy-propionyl)-sisomicin]	1 to 16 (≈ 1.58 to 25.3 µM)	< 1			
CN[C@@H]1[C@@H](O)[C@@H](O[C@@H]2[C@@H](O)[C@H](O[C@H]3OC(CNCCO)=CC[C@H]3N)[C@@H](N)C[C@H]2NC(=O)[C@H](O)CN)OC[C@]1(C)O [Example 9, 6′-(2-Hydroxy-ethyl)-1-(3-amino-2(R)-hydroxy-propionyl)-sisomicin]	> 16	1 to 16 (≈ 1.73 to 27.6 µM)			
CN[C@@H]1[C@@H](O)[C@@H](O[C@@H]2[C@@H](O)[C@H](O[C@H]3OC(CNCC(O)CO)=CC[C@H]3N)[C@@H](N)C[C@H]2NC(=O)[C@H](O)CN)OC[C@]1(C)O (stereo partly drawn) [Example 10, 6′-(2-Hydroxy-propanol)-1-(3-amino-2(R)-hydroxy-propionyl)-sisomicin]	1 to 16 (≈ 1.64 to 26.3 µM)	1 to 16 (≈ 1.64 to 26.3 µM)			
CN[C@@H]1[C@@H](O)[C@@H](O[C@@H]2[C@@H](O)[C@H](O[C@H]3OC(CNCCCN)=CC[C@H]3N)[C@@H](N)C[C@H]2NC(=O)[C@H](O)CN)OC[C@]1(C)O [Example 11, 6′-(3-Amino-propyl)-1-(3-amino-2(R)-hydroxy-propionyl)-sisomicin]	1 to 16 (≈ 1.69 to 27 µM)	< 1			
CN[C@@H]1[C@@H](O)[C@@H](O[C@@H]2[C@@H](O)[C@H](O[C@H]3OC(CNCC(O)CO)=CC[C@H]3N)[C@@H](N)C[C@H]2NC(=O)[C@@H](O)CN)OC[C@]1(C)O (stereo partly drawn) [Example 14, 6′-(2-Hydroxy-propanol)-1-(3-amino-2(S)-hydroxy-propionyl)-sisomicin]	1 to 16 (≈ 1.64 to 26.3 µM)	1 to 16 (≈ 1.64 to 26.3 µM)			
CN[C@@H]1[C@@H](O)[C@@H](O[C@@H]2[C@@H](O)[C@H](O[C@H]3OC(CNCC4CCNCC4)=CC[C@H]3N)[C@@H](N)C[C@H]2NC(=O)[C@@H](O)CN)OC[C@]1(C)O [Example 15, 6′-(Methyl-piperidin-4-yl)-1-(3-amino-2(S)-hydroxy-propionyl)-sisomicin]			1 to 16 (≈ 1.58 to 25.3 µM)	< 1	< 1
CN[C@@H]1[C@@H](O)[C@@H](O[C@@H]2[C@@H](O)[C@H](O[C@H]3OC(CNCC(O)CO)=CC[C@H]3N)[C@@H](N)C[C@H]2NC(=O)[C@@H](O)CCN)OC[C@]1(C)O (stereo partly drawn) [Example 19, 6′-(2-Hydroxy-propanol)-1-(4-amino-2(S)-hydroxy-butyryl)-sisomicin]	1 to 16 (≈ 1.61 to 25.7 µM)	< 1			
CN[C@@H]1[C@@H](O)[C@@H](O[C@@H]2[C@@H](O)[C@H](O[C@H]3OC(CNC(=O)C(O)CN)=CC[C@H]3N)[C@@H](N)C[C@H]2NC(=O)[C@@H](O)CN)OC[C@]1(C)O (stereo partly drawn) [Example 20, 6′-(3-Amino-2-hydroxy-propionyl)-1-(3-amino-2(S)-hydroxy-propionyl)-sisomicin]	> 16	> 16			
CN[C@@H]1[C@@H](O)[C@@H](O[C@@H]2[C@@H](O)[C@H](O[C@H]3OC(CNCC(O)C(N)=O)=CC[C@H]3N)[C@@H](N)C[C@H]2NC(=O)[C@@H](O)CN)OC[C@]1(C)O (stereo partly drawn) [Example 21, 6′-(2-Hydroxy-3-propionamide)-1-(3-amino-2(S)-hydroxy-propionyl)-sisomicin]	1 to 16 (≈ 1.61 to 25.7 µM)	1 to 16 (≈ 1.61 to 25.7 µM)			
CN[C@@H]1[C@@H](O)[C@@H](O[C@@H]2[C@@H](O)[C@H](O[C@H]3OC(CNCC(O)CN)=CC[C@H]3N)[C@@H](N)C[C@H]2NC(=O)[C@@H](O)CN)OC[C@]1(C)O (stereo partly drawn) [Example 22, 6′-(3-Amino-2-hydroxy-propyl)-1-(3-amino-2(S)-hydroxy-propionyl)-sisomicin]			1 to 16 (≈ 1.65 to 26.3 µM)	1 to 16 (≈ 1.65 to 26.3 µM)	1 to 16 (≈ 1.65 to 26.3 µM)
CN[C@@H]1[C@@H](O)[C@@H](O[C@@H]2[C@@H](O)[C@H](O[C@H]3OC(CNCC(O)CO)=CC[C@H]3N)[C@@H](N)C[C@H]2NC(=O)CO)OC[C@]1(C)O (some centres unmarked) [Example 23, 6′-(2-Hydroxy-propanol)-1-(2-hydroxy-acetyl)-sisomicin]	> 16	> 16			
CN[C@@H]1[C@@H](O)[C@@H](O[C@@H]2[C@@H](O)[C@H](O[C@H]3OC(CNCCCN)=CC[C@H]3N)[C@@H](N)C[C@H]2NC(=O)CO)OC[C@]1(C)O [Example 24, 6′-(3-Amino-propyl)-1-(2-hydroxy-acetyl)-sisomicin]	1 to 16 (≈ 1.78 to 28.4 µM)	1 to 16 (≈ 1.78 to 28.4 µM)			
CN[C@@H]1[C@@H](O)[C@@H](O[C@@H]2[C@@H](O)[C@H](O[C@H]3OC(CNCCO)=CC[C@H]3N)[C@@H](N)C[C@H]2NC(=O)CO)OC[C@]1(C)O [Example 25, 6′-(2-Hydroxy-ethyl)-1-(2-hydroxy-acetyl)-sisomicin]	1 to 16 (≈ 1.82 to 29.1 µM)	1 to 16 (≈ 1.82 to 29.1 µM)			
CN[C@@H]1[C@@H](O)[C@@H](O[C@@H]2[C@@H](O)[C@H](O[C@H]3OC(CNCCCN)=CC[C@H]3N)[C@@H](N)C[C@H]2NS(=O)(=O)CCN)OC[C@]1(C)O [Example 26, 6′-(3-Amino-propyl)-1-(2-amino-ethylsulfonamide)-sisomicin]	1 to 16 (≈ 1.63 to 26.2 µM)	1 to 16 (≈ 1.63 to 26.2 µM)			
CN[C@@H]1[C@@H](O)[C@@H](O[C@@H]2[C@@H](O)[C@H](O[C@H]3OC(CNCC(O)CO)=CC[C@H]3N)[C@@H](N)C[C@H]2NS(=O)(=O)CCN)OC[C@]1(C)O (some centres unmarked) [Example 27, 6′-(2-Hydroxy-propanol)-1-(2-amino-ethylsulfonamide)-sisomicin]	> 16	1 to 16 (≈ 1.59 to 25.4 µM)			
